Source: patent publication US11254661B2, “Quinoline derivatives for treating infections with helminths” (Bayer Animal Health GMBH, priority 2017, dated 2022)

Legend:
[1] = system: Dirofilaria immitis microfilariae; assay: In Vitro Assay 2: Dirofilaria immitis microfilariae (DIROIM L1) motility; conditions: 72 h
[2] = target: C. elegans Slo-1a (Caenorhabditis elegans, UniProt Q95V25)
C. elegans Slo-1a, sequence (Q95V25 whole entry): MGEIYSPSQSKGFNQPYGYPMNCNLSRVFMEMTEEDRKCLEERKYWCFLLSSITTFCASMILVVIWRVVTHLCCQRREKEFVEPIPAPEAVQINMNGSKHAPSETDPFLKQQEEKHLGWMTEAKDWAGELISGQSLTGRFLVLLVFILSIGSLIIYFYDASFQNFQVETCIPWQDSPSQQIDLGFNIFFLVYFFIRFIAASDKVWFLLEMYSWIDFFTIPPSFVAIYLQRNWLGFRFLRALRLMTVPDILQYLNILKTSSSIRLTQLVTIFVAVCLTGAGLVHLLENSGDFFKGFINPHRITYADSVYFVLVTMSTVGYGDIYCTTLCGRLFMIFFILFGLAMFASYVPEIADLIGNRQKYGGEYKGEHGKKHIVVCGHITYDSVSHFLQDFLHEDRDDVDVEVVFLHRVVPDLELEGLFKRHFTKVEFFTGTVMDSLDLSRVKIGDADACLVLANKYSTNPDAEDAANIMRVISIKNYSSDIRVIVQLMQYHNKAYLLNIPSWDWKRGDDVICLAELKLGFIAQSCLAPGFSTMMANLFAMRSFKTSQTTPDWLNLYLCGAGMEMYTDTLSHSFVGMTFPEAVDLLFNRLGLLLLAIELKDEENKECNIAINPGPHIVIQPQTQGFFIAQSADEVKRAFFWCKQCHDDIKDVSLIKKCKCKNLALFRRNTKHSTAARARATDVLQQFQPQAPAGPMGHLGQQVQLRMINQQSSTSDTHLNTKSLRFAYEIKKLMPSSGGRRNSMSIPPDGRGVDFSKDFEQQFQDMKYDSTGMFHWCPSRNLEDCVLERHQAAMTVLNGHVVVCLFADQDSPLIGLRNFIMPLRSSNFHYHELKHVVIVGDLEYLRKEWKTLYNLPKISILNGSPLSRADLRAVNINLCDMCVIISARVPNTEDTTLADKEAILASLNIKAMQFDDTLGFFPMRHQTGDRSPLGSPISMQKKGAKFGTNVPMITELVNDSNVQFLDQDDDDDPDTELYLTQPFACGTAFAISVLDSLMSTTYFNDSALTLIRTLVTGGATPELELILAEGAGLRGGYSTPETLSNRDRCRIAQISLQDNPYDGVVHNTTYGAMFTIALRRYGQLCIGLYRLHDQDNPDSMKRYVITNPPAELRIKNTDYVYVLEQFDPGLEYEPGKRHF
Description: In Vitro Assay 1: C. elegans Slo-1a—Action at a Recombinant C. elegans Cell Line
Cells were cultured at 37° C. and 5% CO2 in MEMalpha with Gutamax I (Invitrogen, Nr.: 32571), supplemented with 10% (v/v) heat inactivated fetal bovine serum (Invitrogen, Nr.: 10500), G418 (1 mg/ml, Invitrogen, Nr.: 10131). Cells were detached using Accutase (Sigma, Nr.: A6964).
Membrane Potential Measurements
Laboratory compound testing was performed on 384-well microtiter plates (MTPs, Greiner, Nr.: 781092). 8000 cells/well were plated onto 384-well MTPs and cultured for 20 to 24 hours at 37° C. and 5% CO2. After removal of the cell culture medium, the cells were washed once with tyrode (150 mM NaCl, 0.3 mM KCl, 2 mM CaCl2, 1 mM MgCl2, 0.8 mM NaH2PO4, 5 mM Glucose, 28 mM Hepes, pH 7.4) and then loaded with the voltage sensitive dye of the Membrane Potential Assay Kit diluted in tyrode for 1 h at room temperature.
After starting the measurement of fluorescence using a FLIPR Tetra(Molecular Devices, Exc. 510-545 nm, Emm. 565-625 nm), test compounds were added followed by the addition of KCl tyrode (final assay concentration: 70 mM KCl, 2 mM CaCl2, 1 mM MgCl2, 0.8 mM NaH2PO4, 5 mM Glucose, 28 mM Hepes, pH 7.4, including the voltage sensitive dye). The measurement was completed after 7 minutes.

SMILES | EC50 [1] [µg/mL] | EC50 [2] [nM]
CC(C)C#Cc1cccc2c(N(C)C)c(C(=O)N[C@H]3CCOc4ccccc43)cnc12 [Example 1, (S)—N-(Chroman-4-yl)-4-(dimethylamino)-8-(3-methylbut-1-yn-1-yl)quinoline-3-carboxamide] | < 10 | 31.6 to 316
COCC#Cc1cccc2c(N(C)C)c(C(=O)N[C@H]3CCOc4ccccc43)cnc12 [Example 2, (S)—N-(Chroman-4-yl)-4-(dimethylamino)-8-(3-methoxyprop-1-yn-1-yl)quinoline-3-carboxamide] | < 10 | 316 to 5010
CC(C)CCc1cccc2c(N(C)C)c(C(=O)N[C@H]3CCOc4ccccc43)cnc12 [Example 3, (S)—N-(Chroman-4-yl)-4-(dimethylamino)-8-isopentylquinoline-3-carboxamide] | < 1 | 3.16 to 31.6
COCCCc1cccc2c(N(C)C)c(C(=O)N[C@H]3CCOc4ccccc43)cnc12 [Example 4, (S)—N-(Chroman-4-yl)-4-(dimethylamino)-8-(3-methoxypropyl)quinoline-3-carboxamide] | < 10 | 316 to 5010
CN(C)c1c(C(=O)N[C@H]2CCOc3ccccc32)cnc2c(C3COC3)cccc12 [Example 5, (S)—N-(Chroman-4-yl)-4-(dimethylamino)-8-(oxetan-3-yl)quinoline-3-carboxamide] | < 10 | 316 to 5010
CN(C)c1c(C(=O)N[C@H]2CCOc3ccccc32)cnc2c(C3CCOCC3)cccc12 [Example 6, (S)—N-(Chroman-4-yl)-4-(dimethylamino)-8-(tetrahydro-2H-pyran-4-yl)quinoline-3-carboxamide] | < 1 | 31.6 to 316
CN(C)c1c(C(=O)N[C@H]2CCOc3ccccc32)cnc2c(C3=CCCC3)cccc12 [Example 7, (S)—N-(Chroman-4-yl)-8-(cyclopent-1-en-1-yl)-4-(dimethylamino)quinoline-3-carboxamide] | < 1 | 3.16 to 31.6
CN(C)c1c(C(=O)N[C@H]2CCOc3ccccc32)cnc2c(C3CCCC3)cccc12 [Example 8, (S)—N-(Chroman-4-yl)-8-cyclopentyl-4-(dimethylamino)quinoline-3-carboxamide] | < 0.1 | < 3.16
C=C(C)c1cccc2c(N(C)C)c(C(=O)N[C@H]3CCOc4ccccc43)cnc12 [Example 9, (S)—N-(Chroman-4-yl)-4-(dimethylamino)-8-(prop-1-en-2-yl)quinoline-3-carboxamide] | < 1 | 31.6 to 316
CC(C)c1cccc2c(N(C)C)c(C(=O)N[C@H]3CCOc4ccccc43)cnc12 [Example 10, (S)—N-(Chroman-4-yl)-4-(dimethylamino)-8-isopropylquinoline-3-carboxamide] | < 1 | 31.6 to 316
CN(C)c1c(C(=O)N[C@H]2CCOc3ccccc32)cnc2c(C3=CCCCC3)cccc12 [Example 11, (S)—N-(Chroman-4-yl)-8-(cyclohex-1-en-1-yl)-4-(dimethylamino)quinoline-3-carboxamide] | < 1 | 3.16 to 31.6
CN(C)c1c(C(=O)N[C@H]2CCOc3ccccc32)cnc2c(C3CCCCC3)cccc12 [Example 12, (S)—N-(Chroman-4-yl)-8-cyclohexyl-4-(dimethylamino)quinoline-3-carboxamide] | < 0.1 | 3.16 to 31.6
CN(C)c1c(C(=O)N[C@H]2CCOc3ccccc32)cnc2c(C3=CCOCC3)cccc12 [Example 13, (S)—N-(Chroman-4-yl)-8-(3,6-dihydro-2H-pyran-4-yl)-4-(dimethylamino)quinoline-3-carboxamide] | < 1 | 31.6 to 316
CN(C)c1c(C(=O)N[C@H]2CCOc3ccccc32)cnc2c(C3=CCCCCC3)cccc12 [Example 14, (S)—N-(Chroman-4-yl)-8-(cyclohept-1-en-1-yl)-4-(dimethylamino)quinoline-3-carboxamide] | < 0.1 | 3.16 to 31.6
CN(C)c1c(C(=O)N[C@H]2CCOc3ccccc32)cnc2c(C3=CCC(C(F)(F)F)CC3)cccc12 (stereo partly drawn) [Example 16, N—((S)-Chroman-4-yl)-4-(dimethylamino)-8-(4-(trifluoromethyl)cyclohex-1-en-1-yl)quinoline-3-carboxamide] | < 1 | 3.16 to 31.6
CN(C)c1c(C(=O)N[C@H]2CCOc3ccccc32)cnc2c(C3CCC(C(F)(F)F)CC3)cccc12 (stereo partly drawn) [Example 17, N—((S)-Chroman-4-yl)-4-(dimethylamino)-8-(4-(trifluoromethyl)cyclohexyl)quinoline-3-carboxamide] | < 0.1 | 3.16 to 31.6
CN(C)c1c(C(=O)N[C@H]2CCOc3ccccc32)cnc2c(C3CCC(C)(C)CC3)cccc12 [Example 19, (S)—N-(Chroman-4-yl)-4-(dimethylamino)-8-(4,4-dimethylcyclohexyl)quinoline-3-carboxamide] | < 1 | 31.6 to 316

SMILES | EC50 [1] [µg/mL] | EC50 [2] [nM]
CN(C)c1c(C(=O)N[C@H]2CCOc3ccccc32)cnc2c(C3CN(C(=O)OC(C)(C)C)C3)cccc12 [Example 20, tert-Butyl(S)-3-(3-(chroman-4-ylcarbamoyl)-4-(dimethylamino)quinolin-8-yl)azetidine-1-carboxylate] | < 10 | 316 to 5010
CN(C)c1c(C(=O)N[C@H]2CCOc3ccccc32)cnc2c(C3=CCNCC3)cccc12 [Example 21, (S)—N-(Chroman-4-yl)-4-(dimethylamino)-8-(1,2,3,6-tetrahydropyridin-4-yl)quinoline-3-carboxamide] | < 10 | 316 to 5010
C[C@H]1COCCN1c1cccc2c(N3CCOCC3)c(C(=O)N[C@H]3CCOc4ccccc43)cnc12 [Example 23, N-[(4S)-3,4-Dihydro-2H-chromen-4-yl]-8-[(3S)-3-methylmorpholin-4-yl]-4-(morpholin-4-yl)quinoline-3-carboxamide] | < 10 | 316 to 5010
O=C(N[C@H]1CCOc2ccccc21)c1cnc2c(N3CCOCC3)cccc2c1N1CCOCC1 [Example 24, N-[(4S)-3,4-dihydro-2H-chromen-4-yl]-4,8-di(morpholin-4-yl)quinoline-3-carboxamide] | < 10 | 316 to 5010
O=C(N[C@H]1CCOc2ccccc21)c1cnc2c(NC3CCCCC3)cccc2c1N1CCOCC1 [Example 25, 8-(cyclohexylamino)-N-[(4S)-3,4-dihydro-2H-chromen-4-yl]-4-(morpholin-4-yl)quinoline-3-carboxamide] | < 10 | 3.16 to 31.6
CC(C)(C)OC(=O)Nc1cccc2c(N3CCOCC3)c(C(=O)N[C@H]3CCOc4ccccc43)cnc12 [Example 26, tert-butyl {3-[(4S)-3,4-dihydro-2H-chromen-4-ylcarbamoyl]-4-(morpholin-4-yl)quinolin-8-yl}carbamate] | < 0.1 | 3.16 to 31.6
C[C@@H]1COCCN1c1cccc2c(N3CCOCC3)c(C(=O)N[C@H]3CCOc4ccccc43)cnc12 [Example 27, N-[(4S)-3,4-dihydro-2H-chromen-4-yl]-8-[(3R)-3-methylmorpholin-4-yl]-4-(morpholin-4-yl)quinoline-3-carboxamide] | < 1 | 316 to 5010
CC(=O)Nc1cccc2c(N3CCOCC3)c(C(=O)N[C@H]3CCOc4ccccc43)cnc12 [Example 28, 8-(acetylamino)-N-[(4S)-3,4-dihydro-2H-chromen-4-yl]-4-(morpholin-4-yl)quinoline-3-carboxamide] | < 10 | 316 to 5010
O=C(N[C@H]1CCOc2ccccc21)c1cnc2c(N3CCCCC3)cccc2c1N1CCOCC1 [Example 29, N-[(4S)-3,4-dihydro-2H-chromen-4-yl]-4-(morpholin-4-yl)-8-(piperidin-1-yl)quinoline-3-carboxamide] | < 0.1 | 31.6 to 316
CN(C)c1c(C(=O)N[C@H]2CCOc3ccccc32)cnc2c(N3CCCCC3)cccc12 [Example 30, N-[(4S)-3,4-dihydro-2H-chromen-4-yl]-4-(dimethylamino)-8-(piperidin-1-yl)quinoline-3-carboxamide] | < 1 | 31.6 to 316
C[C@@H]1CN(c2cccc3c(N4CCOCC4)c(C(=O)N[C@H]4CCOc5ccccc54)cnc23)C[C@H](C)O1 [Example 31, N-[(4S)-3,4-dihydro-2H-chromen-4-yl]-8-[(2R,6S)-2,6-dimethylmorpholin-4-yl]-4-(morpholin-4-yl)quinoline-3-carboxamide] | < 10 | 31.6 to 316
C[C@@H]1CN(c2cccc3c(N4CCOCC4)c(C(=O)N[C@H]4CCOc5ccccc54)cnc23)C[C@@H](C)O1 [Example 32, N-[(4S)-3,4-dihydro-2H-chromen-4-yl]-8-[(2R,6R)-2,6-dimethylmorpholin-4-yl]-4-(morpholin-4-yl)quinoline-3-carboxamide] | < 1 | 316 to 5010
CC(C)c1c(C(=O)N[C@H]2CCOc3ccccc32)cnc2c(N3CCCCC3)cccc12 [Example 35, N-[(4S)-3,4-dihydro-2H-chromen-4-yl]-8-(piperidin-1-yl)-4-(propan-2-yl)quinoline-3-carboxamide] | < 0.1 | 31.6 to 316
CC(C)c1c(C(=O)N[C@H]2CCOc3ccccc32)cnc2c(N3C[C@H](C)C[C@H](C)C3)cccc12 [Example 36, N-[(4S)-3,4-dihydro-2H-chromen-4-yl]-8-[(3R,5S)-3,5-dimethylpiperidin-1-yl]-4-(propan-2-yl)quinoline-3-carboxamide] | < 0.1 | 3.16 to 31.6
CN(C)c1c(C(=O)N[C@H]2CCc3ccccc32)cnc2c(N3CCC(F)(F)CC3)c(F)ccc12 [Example 39, 8-(4,4-difluoropiperidin-1-yl)-N-[(1S)-2,3-dihydro-1H-inden-1-yl]-4-(dimethylamino)-7-fluoroquinoline-3-carboxamide] | < 1 | 3.16 to 31.6
CC1CC(C)CN(c2c(F)ccc3c(N(C)C)c(C(=O)N[C@H]4CCc5ccccc54)cnc23)C1 (stereo partly drawn) [Example 41, N-[(1S)-2,3-dihydro-1H-inden-1-yl]-4-(dimethylamino)-8-(3,5-dimethylpiperidin-1-yl)-7-fluoroquinoline-3-carboxamide] | < 1 | 3.16 to 31.6
